Calls of active or inactive are those of the source. The rule behind the calls is not given here.
Target: Hepatitis C virus NS3 helicase (ATPase activity)
Assay: HCV NS3 ATP hydrolysis blockers – biochemical, absorbance, mechanism study for HCV NS3 helicase inhibitor project, late-stage follow-up (AID 623973)
Details: absorbance phosphate detection

Compound	IC50
Cc1ccc2nc(-c3ccc4nc(-c5ccc(NC(=O)c6ccc(N)cc6)cc5)sc4c3)sc2c1S(=O)(=O)O	inactive
CCN(CC)c1ccc(-c2nc3ccc(C)c(S(=O)(=O)O)c3s2)cc1	> 200 µM (inactive)
COc1ccc(C(=O)Nc2ccc(-c3nc4ccc(-c5nc6ccc(C)c(S(=O)(=O)O)c6s5)cc4s3)cc2)cc1	50 µM
Cc1ccc2nc(-c3ccc4nc(-c5ccc(NC(=O)c6ccc7nc(-c8ccc(N)cc8)sc7c6)cc5)sc4c3)sc2c1S(=O)(=O)O	> 200 µM (inactive)
COc1cccc2c(=O)c3cc(Cl)cc(C(=O)Nc4cc(Cl)ccn4)c3[nH]c12	> 200 µM (inactive)
Cc1ccc(C(=O)Nc2ccc(-c3nc4ccc(-c5nc6ccc(C)c(S(=O)(=O)O)c6s5)cc4s3)cc2)cc1	33 µM
Cc1ccc2nc(-c3ccc(NC(=O)c4ccc(NC(=O)Nc5ccccc5)cc4)cc3)sc2c1S(=O)(=O)O	> 200 µM (inactive)
Cc1cc(C(O)(c2ccc(Nc3ccccc3)cc2)c2ccc(Nc3ccc(S(=O)(=O)O)cc3)cc2)ccc1N (stereo unspecified)	> 200 µM (inactive)
Cc1ccc2nc(-c3ccc4nc(-c5ccc(NC(=O)Nc6ccc(Cl)cc6)cc5)sc4c3)sc2c1S(=O)(=O)O	86 µM
Cc1ccc2nc(-c3ccc4nc(-c5ccc(NC(=O)c6cc(C(F)(F)F)cc(C(F)(F)F)c6)cc5)sc4c3)sc2c1S(=O)(=O)O	inactive
Cc1ccc2nc(-c3ccc4nc(-c5ccc(NC(=O)c6ccc(Cl)c(Cl)c6)cc5)sc4c3)sc2c1S(=O)(=O)O	44 µM
Cc1ccc2nc(-c3ccc4nc(-c5ccc(N)cc5)sc4c3)sc2c1S(=O)(=O)O	> 200 µM (inactive)
CCN(CC)c1ccc(-c2nc3ccc(-c4nc5ccc(C)c(S(=O)(=O)O)c5s4)cc3s2)cc1	> 200 µM (inactive)

The remaining lines, values ahead:

IC50	Compound
> 200 µM (inactive)	Cc1ccc2nc(-c3ccc(N)cc3)sc2c1S(=O)(=O)O
> 200 µM (inactive)	Cc1cc2sc(-c3ccc(N)cc3)nc2cc1S(=O)(=O)O
> 200 µM (inactive)	Cc1ccc2nc(-c3ccc4nc(-c5ccc(NC(=O)c6cccnc6)cc5)sc4c3)sc2c1S(=O)(=O)O
30 µM	Cc1ccc2nc(-c3ccc4nc(-c5ccc(NC(=O)c6ccc7ccccc7c6)cc5)sc4c3)sc2c1S(=O)(=O)O
73 µM	COc1ccc(NC(=O)Nc2ccc(-c3nc4ccc(-c5nc6ccc(C)c(S(=O)(=O)O)c6s5)cc4s3)cc2)cc1
> 200 µM (inactive)	O=C(CCCCCCC(=O)Nc1ccc(-c2nc3ccccc3[nH]2)cc1)Nc1ccc(-c2nc3ccccc3[nH]2)cc1
> 200 µM (inactive)	Cc1ccc2c(sc(-c3ccc4c(c3)sc(-c3ccc5c(c3)sc(-c3ccc(N(C)C)cc3)[n+]5C)[n+]4C)[n+]2C)c1S(=O)(=O)O (tested in a mixture with another compound)
> 200 µM (inactive)	CN1CCN(Cc2cc(CN3CCN(C)CC3)c(O)c(=O)c(CN3CCN(C)CC3)c2)CC1
61 µM	Cc1ccc2nc(-c3ccc4nc(-c5ccc(NC(=O)c6cc(C(F)(F)F)ccc6F)cc5)sc4c3)sc2c1S(=O)(=O)O
> 200 µM (inactive)	Cc1cc2sc(-c3ccc4nc(-c5ccc(N)cc5)sc4c3)nc2cc1S(=O)(=O)O
inactive	Cc1ccc2nc(-c3ccc4nc(-c5ccc(NC(=O)c6ccc(C(C)(C)C)cc6)cc5)sc4c3)sc2c1S(=O)(=O)O
> 200 µM (inactive)	CCOc1ccc2c(NNC(=O)c3cnccn3)c3c(nc2c1)CCCC3
70 µM	Cc1ccc2nc(-c3ccc4nc(-c5ccc(NC(=O)Nc6ccccc6)cc5)sc4c3)sc2c1S(=O)(=O)O
74 µM	Cc1ccc2nc(-c3ccc4nc(-c5ccc(NC(=O)c6cccc(Cl)c6)cc5)sc4c3)sc2c1S(=O)(=O)O
24 µM	Cc1ccc2nc(-c3ccc4nc(-c5ccc(NC(=O)c6ccc(C(F)(F)F)cc6)cc5)sc4c3)sc2c1S(=O)(=O)O
50 µM	Cc1ccc2nc(-c3ccc4nc(-c5ccc(NC(=O)c6ccc(Br)cc6)cc5)sc4c3)sc2c1S(=O)(=O)O
43 µM	Cc1ccc2nc(-c3ccc4nc(-c5ccc6nc(-c7ccc8nc(-c9ccc(N)cc9)sc8c7)sc6c5)sc4c3)sc2c1S(=O)(=O)O
67 µM	Cc1ccc2nc(-c3ccc4nc(-c5ccc(NC(=O)c6ccc(F)cc6)cc5)sc4c3)sc2c1S(=O)(=O)O
